# Data taken from ChEMBL document CHEMBL1140040, “Synthesis and cytotoxic activity of some novel polycyclic gamma-butyrolactones” (Bioorg Med Chem Lett, 2008).
# pIC50: −log10 of the molar value.
# Columns and labels:
# A549 [1] = experiment: Antiproliferative activity against human A549 cells after 48 hrs by sulforhodamine B assay; type: functional, cell-based; settings: A549, 48 h
# SK-OV-3 [2] = experiment: Cytotoxicity against human SKOV3 cells assessed as age growth inhibition at 10 uM after 48 hrs by sulforhodamine B assay; type: functional; settings: SK-OV-3, 48 h, read-out: GI
# A549 [3] = experiment: Cytotoxicity against human A549 cells assessed as age growth inhibition at 100 uM after 48 hrs by sulforhodamine B assay; type: functional; settings: A549, 48 h, read-out: GI
# HOP-62 [4] = experiment: Antiproliferative activity against human HOP62 cells after 48 hrs by sulforhodamine B assay; type: functional, cell-based; settings: HOP-62, 48 h
# SK-OV-3 [5] = experiment: Cytotoxicity against human SKOV3 cells assessed as age growth inhibition at 50 uM after 48 hrs by sulforhodamine B assay; type: functional; settings: SK-OV-3, 48 h, read-out: GI
# SF-295 [6] = experiment: Antiproliferative activity against human SF295 cells after 48 hrs by sulforhodamine B assay; type: functional, cell-based; settings: SF-295, 48 h
# COLO 205 [7] = experiment: Cytotoxicity against human COLO205 cells assessed as age growth inhibition at 10 uM after 48 hrs by sulforhodamine B assay; type: functional; settings: COLO 205, 48 h, read-out: GI
# IGROV-1 [8] = experiment: Cytotoxicity against human IGROV1 cells assessed as age growth inhibition at 100 uM after 48 hrs by sulforhodamine B assay; type: functional; settings: IGROV-1, 48 h, read-out: GI
# HEp-2 [9] = experiment: Cytotoxicity against human HEP2 cells assessed as age growth inhibition at 10 uM after 48 hrs by sulforhodamine B assay; type: functional; settings: HEp-2, 48 h, read-out: GI
# HEp-2 [10] = experiment: Antiproliferative activity against human HEP2 cells after 48 hrs by sulforhodamine B assay; type: functional, cell-based; settings: HEp-2, 48 h
# DU-145 [11] = experiment: Cytotoxicity against human DU145 cells assessed as age growth inhibition at 100 uM after 48 hrs by sulforhodamine B assay; type: functional; settings: DU-145, 48 h, read-out: GI
# A549 [12] = experiment: Cytotoxicity against human A549 cells assessed as age growth inhibition at 50 uM after 48 hrs by sulforhodamine B assay; type: functional; settings: A549, 48 h, read-out: GI
# SF-295 [13] = experiment: Cytotoxicity against human SF295 cells assessed as age growth inhibition at 10 uM after 48 hrs by sulforhodamine B assay; type: functional; settings: SF-295, 48 h, read-out: GI
# IGROV-1 [14] = experiment: Cytotoxicity against human IGROV1 cells assessed as age growth inhibition at 10 uM after 48 hrs by sulforhodamine B assay; type: functional; settings: IGROV-1, 48 h, read-out: GI
# DU-145 [15] = experiment: Cytotoxicity against human DU145 cells assessed as age growth inhibition at 10 uM after 48 hrs by sulforhodamine B assay; type: functional; settings: DU-145, 48 h, read-out: GI
# HOP-62 [16] = experiment: Cytotoxicity against human HOP62 cells assessed as age growth inhibition at 100 uM after 48 hrs by sulforhodamine B assay; type: functional; settings: HOP-62, 48 h, read-out: GI
# HOP-62 [17] = experiment: Cytotoxicity against human HOP62 cells assessed as age growth inhibition at 50 uM after 48 hrs by sulforhodamine B assay; type: functional; settings: HOP-62, 48 h, read-out: GI
# HCT-15 [18] = experiment: Antiproliferative activity against human HCT15 cells after 48 hrs by sulforhodamine B assay; type: functional, cell-based; settings: HCT-15, 48 h
# SK-OV-3 [19] = experiment: Cytotoxicity against human SKOV3 cells assessed as age growth inhibition at 100 uM after 48 hrs by sulforhodamine B assay; type: functional; settings: SK-OV-3, 48 h, read-out: GI
# A549 [20] = experiment: Cytotoxicity against human A549 cells assessed as age growth inhibition at 10 uM after 48 hrs by sulforhodamine B assay; type: functional; settings: A549, 48 h, read-out: GI
# DU-145 [21] = experiment: Antiproliferative activity against human DU145 cells after 48 hrs by sulforhodamine B assay; type: functional, cell-based; settings: DU-145, 48 h
# IGROV-1 [22] = experiment: Cytotoxicity against human IGROV1 cells assessed as age growth inhibition at 50 uM after 48 hrs by sulforhodamine B assay; type: functional; settings: IGROV-1, 48 h, read-out: GI
# COLO 205 [23] = experiment: Cytotoxicity against human COLO205 cells assessed as age growth inhibition at 50 uM after 48 hrs by sulforhodamine B assay; type: functional; settings: COLO 205, 48 h, read-out: GI
# HOP-62 [24] = experiment: Cytotoxicity against human HOP62 cells assessed as age growth inhibition at 10 uM after 48 hrs by sulforhodamine B assay; type: functional; settings: HOP-62, 48 h, read-out: GI
# HCT-15 [25] = experiment: Cytotoxicity against human HCT15 cells assessed as age growth inhibition at 100 uM after 48 hrs by sulforhodamine B assay; type: functional; settings: HCT-15, 48 h, read-out: GI
# HCT-15 [26] = experiment: Cytotoxicity against human HCT15 cells assessed as age growth inhibition at 10 uM after 48 hrs by sulforhodamine B assay; type: functional; settings: HCT-15, 48 h, read-out: GI
# HEp-2 [27] = experiment: Cytotoxicity against human HEP2 cells assessed as age growth inhibition at 100 uM after 48 hrs by sulforhodamine B assay; type: functional; settings: HEp-2, 48 h, read-out: GI
# DU-145 [28] = experiment: Cytotoxicity against human DU145 cells assessed as age growth inhibition at 50 uM after 48 hrs by sulforhodamine B assay; type: functional; settings: DU-145, 48 h, read-out: GI
# COLO 205 [29] = experiment: Cytotoxicity against human COLO205 cells assessed as age growth inhibition at 100 uM after 48 hrs by sulforhodamine B assay; type: functional; settings: COLO 205, 48 h, read-out: GI
# HEp-2 [30] = experiment: Cytotoxicity against human HEP2 cells assessed as age growth inhibition at 50 uM after 48 hrs by sulforhodamine B assay; type: functional; settings: HEp-2, 48 h, read-out: GI
# HCT-15 [31] = experiment: Cytotoxicity against human HCT15 cells assessed as age growth inhibition at 50 uM after 48 hrs by sulforhodamine B assay; type: functional; settings: HCT-15, 48 h, read-out: GI
# IGROV-1 [32] = experiment: Antiproliferative activity against human IGROV1 cells after 48 hrs by sulforhodamine B assay; type: functional, cell-based; settings: IGROV-1, 48 h
# SF-295 [33] = experiment: Cytotoxicity against human SF295 cells assessed as age growth inhibition at 100 uM after 48 hrs by sulforhodamine B assay; type: functional; settings: SF-295, 48 h, read-out: GI
# SF-295 [34] = experiment: Cytotoxicity against human SF295 cells assessed as age growth inhibition at 50 uM after 48 hrs by sulforhodamine B assay; type: functional; settings: SF-295, 48 h, read-out: GI
# SK-OV-3 [35] = experiment: Antiproliferative activity against human SKOV3 cells after 48 hrs by sulforhodamine B assay; type: functional, cell-based; settings: SK-OV-3, 48 h
# COLO 205 [36] = experiment: Antiproliferative activity against human COLO205 cells after 48 hrs by sulforhodamine B assay; type: functional, cell-based; settings: COLO 205, 48 h
Structure (SMILES),pIC50 (A549 [1]),inhibition of growth at 10 µM (SK-OV-3 [2]),inhibition of growth at 100 µM (A549 [3]),pIC50 (HOP-62 [4]),inhibition of growth at 50 µM (SK-OV-3 [5]),pIC50 (SF-295 [6]),inhibition of growth at 10 µM (COLO 205 [7]),inhibition of growth at 100 µM (IGROV-1 [8]),inhibition of growth at 10 µM (HEp-2 [9]),pIC50 (HEp-2 [10]),inhibition of growth at 100 µM (DU-145 [11]),inhibition of growth at 50 µM (A549 [12]),inhibition of growth at 10 µM (SF-295 [13]),inhibition of growth at 10 µM (IGROV-1 [14]),inhibition of growth at 10 µM (DU-145 [15]),inhibition of growth at 100 µM (HOP-62 [16]),inhibition of growth at 50 µM (HOP-62 [17]),pIC50 (HCT-15 [18]),inhibition of growth at 100 µM (SK-OV-3 [19]),inhibition of growth at 10 µM (A549 [20]),also measured
CC1(C)CCC[C@@]2(C)C1=C[C@H]1C(=O)O[C@H](c3ccccc3)[C@H]12,4.01,20%,51%,< 4.00,30%,< 4.00,14%,63%,6%,< 4.00,56%,29%,15%,0%,15%,28%,21%,4.12,57%,11%,pIC50 (DU-145 [21]): 4.06; inhibition of growth at 50 µM (IGROV-1 [22]): 22%; inhibition of growth at 50 µM (COLO 205 [23]): 34%; inhibition of growth at 10 µM (HOP-62 [24]): 16%; inhibition of growth at 100 µM (HCT-15 [25]): 56%; inhibition of growth at 10 µM (HCT-15 [26]): 9%; inhibition of growth at 100 µM (HEp-2 [27]): 37%; inhibition of growth at 50 µM (DU-145 [28]): 32%; inhibition of growth at 100 µM (COLO 205 [29]): 79%; inhibition of growth at 50 µM (HEp-2 [30]): 18%; inhibition of growth at 50 µM (HCT-15 [31]): 46%; pIC50 (IGROV-1 [32]): 4.08; inhibition of growth at 100 µM (SF-295 [33]): 22%; inhibition of growth at 50 µM (SF-295 [34]): 18%; pIC50 (SK-OV-3 [35]): 4.06; pIC50 (COLO 205 [36]): 4.20
CC1(C)CCC[C@@]2(C)C1=C[C@H]1C(=O)O[C@H](c3ccco3)[C@H]12,< 4.00,6%,25%,< 4.00,9%,< 4.00,16%,67%,8%,4.01,76%,20%,0%,1%,17%,46%,8%,4.30,57%,19%,pIC50 (DU-145 [21]): 4.20; inhibition of growth at 50 µM (IGROV-1 [22]): 24%; inhibition of growth at 50 µM (COLO 205 [23]): 20%; inhibition of growth at 10 µM (HOP-62 [24]): 2%; inhibition of growth at 100 µM (HCT-15 [25]): 56%; inhibition of growth at 10 µM (HCT-15 [26]): 14%; inhibition of growth at 100 µM (HEp-2 [27]): 52%; inhibition of growth at 50 µM (DU-145 [28]): 37%; inhibition of growth at 100 µM (COLO 205 [29]): 64%; inhibition of growth at 50 µM (HEp-2 [30]): 19%; inhibition of growth at 50 µM (HCT-15 [31]): 50%; pIC50 (IGROV-1 [32]): 4.10; inhibition of growth at 100 µM (SF-295 [33]): 38%; inhibition of growth at 50 µM (SF-295 [34]): 17%; pIC50 (SK-OV-3 [35]): 4.04; pIC50 (COLO 205 [36]): 4.10
Cc1ccc([C@H]2OC(=O)[C@@H]3C=C4C(C)(C)CCC[C@]4(C)[C@H]23)cc1,< 4.00,19%,42%,< 4.00,29%,< 4.00,10%,40%,9%,< 4.00,35%,29%,19%,0%,6%,21%,13%,4.11,30%,13%,pIC50 (DU-145 [21]): < 4.00; inhibition of growth at 50 µM (IGROV-1 [22]): 29%; inhibition of growth at 50 µM (COLO 205 [23]): 22%; inhibition of growth at 10 µM (HOP-62 [24]): 2%; inhibition of growth at 100 µM (HCT-15 [25]): 55%; inhibition of growth at 10 µM (HCT-15 [26]): 11%; inhibition of growth at 100 µM (HEp-2 [27]): 27%; inhibition of growth at 50 µM (DU-145 [28]): 10%; inhibition of growth at 100 µM (COLO 205 [29]): 34%; inhibition of growth at 50 µM (HEp-2 [30]): 25%; inhibition of growth at 50 µM (HCT-15 [31]): 44%; pIC50 (IGROV-1 [32]): < 4.00; inhibition of growth at 100 µM (SF-295 [33]): 21%; inhibition of growth at 50 µM (SF-295 [34]): 20%; pIC50 (SK-OV-3 [35]): < 4.00; pIC50 (COLO 205 [36]): < 4.00
